Patent US20060069132A1, “Azolecarboxamide herbicides” (priority 2004, published 2006)
Like-named read-outs stand apart in the source and are kept apart here.

Assays:
[1] = tested on: wheat; test: Test B postemergence herbicide test; assay type: in vivo, Triticum aestivum; details: Triticum aestivum, post-emergence, 336 h, postemergence, read-out: Wheat plant response rating
Outline: (§1)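 Visual ratings, 0 (no effect) to 100 (complete control), made versus controls after 13–15 d greenhouse. Paddy plants treated at 2-leaf stage; postemergence plants at 1- to 4-leaf stage, 2–18 cm tall.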

[2] = tested on: lambsquarters; test: Test B pre-/postemergence herbicide test; assay type: in vivo, Chenopodium album; details: Chenopodium album, post-emergence, 336 h, postemergence, read-out: Lambsquarters plant response rating
Outline: (§2)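 Evaluation is visual, comparing treated with control plants on a scale where 0 means no effect and 100 means full control. Treatments were preemergence, or postemergence on seedlings 2–18 cm tall, and held 13–15 days in the greenhouse.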

[3] = tested on: pigweed; test: Test B pre-/postemergence herbicide test; assay type: in vivo, Amaranthus retroflexus; details: Amaranthus retroflexus, 336 h; for pest or weed control at 125 g/ha: 125 g ai/ha
Outline: as §2

[4] = tested on: wild oat; test: Test B postemergence herbicide test; assay type: in vivo, Avena fatua; details: Avena fatua, post-emergence, 336 h, postemergence, read-out: Oat, Wild plant response rating
Outline: as §1

[5] = tested on: small flower umbrella sedge; test: Test B flooded paddy test; assay type: in vivo, Cyperus difformis; details: Cyperus difformis, 336 h, 1000 g ai/ha, scale 0 to 100 (0 no effect, 100 complete control), read-out: Sedge, Umbrella plant response rating
Outline: as §1

[6] = tested on: blackgrass; test: Test B postemergence herbicide test; assay type: in vivo, Alopecurus myosuroides; details: Alopecurus myosuroides, post-emergence, 336 h, postemergence, visual rating, scale 0 (no effect) to 100 (complete control), read-out: Blackgrass plant response rating
Outline: as §1

[7] = tested on: Surinam grass; test: Test B pre-/postemergence herbicide test; assay type: in vivo, Urochloa decumbens; details: Urochloa decumbens; for pest or weed control at 125 g/ha: 125 g ai/ha; for pest or weed control at 500 g/ha: 500 g ai/ha
Outline: as §2

[8] = tested on: large crabgrass; test: Test B pre-/postemergence herbicide test; assay type: in vivo, Digitaria sanguinalis; details: Digitaria sanguinalis; for pest or weed control at 125 g/ha: 125 g ai/ha; for pest or weed control at 500 g/ha: 500 g ai/ha
Outline: as §2

[9] = tested on: giant foxtail; test: Test B pre-/postemergence herbicide test; assay type: in vivo, Setaria faberi; details: Setaria faberi, 336 h; for pest or weed control at 125 g/ha: 125 g ai/ha; for pest or weed control at 500 g/ha: 500 g ai/ha
Outline: as §2

[10] = tested on: corn; test: Test B pre-/postemergence herbicide test; assay type: in vivo, Zea mays; details: Zea mays
Outline: as §2

[11] = tested on: morningglory; test: Test B pre-/postemergence herbicide test; assay type: in vivo, Ipomoea coccinea; details: Ipomoea, 336 h; for pest or weed control at 125 g/ha: 125 g ai/ha; for pest or weed control at 500 g/ha: 500 g ai/ha
Outline: (§3)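 Visual rating, 0 (no effect) to 100 (complete control), versus untreated controls after 13–15 d in greenhouse. Pre- and postemergence applications (postemergence plants 2–18 cm, 1–4 leaves); flooded paddy arm at 2-leaf stage. Compounds in non-phytotoxic solvent plus surfactant.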

[12] = tested on: velvetleaf; test: Test B pre-/postemergence herbicide test; assay type: in vivo, Abutilon theophrasti; details: Abutilon theophrasti, 336 h; for pest or weed control at 125 g/ha: 125 g ai/ha; for pest or weed control at 500 g/ha: 500 g ai/ha
Outline: as §2

[13] = tested on: barnyardgrass; test: Test B pre-/postemergence herbicide test; assay type: in vivo, Echinochloa crus-galli; details: Echinochloa crus-galli; for pest or weed control at 125 g/ha: 125 g ai/ha; for pest or weed control at 500 g/ha: 500 g ai/ha
Outline: as §3

[14] = tested on: cocklebur; test: Test B pre-/postemergence herbicide test; assay type: in vivo, Xanthium strumarium; details: Xanthium strumarium; for pest or weed control at 125 g/ha: 125 g ai/ha; for pest or weed control at 500 g/ha: 500 g ai/ha
Outline: as §3

[15] = 125 g ai/ha, visual rating, scale 0 (no effect) to 100 (complete control)
[16] = 500 g ai/ha, scale 0 to 100, 0 is no effect, 100 is complete control
[17] = post-emergence, postemergence, visual rating, scale 0 (no effect) to 100 (complete control), read-out: Barnyardgrass plant response rating
[18] = post-emergence, postemergence, visual rating, scale 0 (no effect) to 100 (complete control), read-out: Cocklebur plant response rating

Structure (SMILES): CCN(CC)C(=O)c1cncc(NC(=O)c2cc(C(C)(C)C)nn2CC)c1 [Compound 261, 5-[[[3-(1,1-dimethylethyl)-1-ethyl-1H-pyrazol-5-yl]carbonyl]amino]-N,N-diethyl-3-pyridinecarboxamide]
- plant injury at 125 g/ha [1, 15]: 0%
- plant injury at 500 g/ha [1, 16]: 20%
- pest or weed control at 125 g/ha [2, 15]: 10%
- pest or weed control at 500 g/ha [2, 16]: 60%
- pest or weed control at 125 g/ha ([3]; post-emergence, postemergence, visual rating, scale 0 (no effect) to 100 (complete control), read-out: Pigweed plant response rating): 20%
- pest or weed control at 500 g/ha ([3]; post-emergence, postemergence, 500 g ai/ha, scale 0 to 100, 0 is no effect, 100 is complete control, read-out: Pigweed plant response rating): 70%
- pest or weed control at 125 g/ha ([3]; pre-emergence, 0 = no effect, 100 = complete control, read-out: Pigweed plant response rating (0 to 100 scale)): 0%
- pest or weed control at 125 g/ha [4, 15]: 0%
- pest or weed control at 500 g/ha [4, 16]: 20%
- pest or weed control at 1000 g/ha [5]: 30%
- pest or weed control at 125 g/ha ([6]; 125 g ai/ha): 0%
- pest or weed control at 500 g/ha ([6]; 500 g ai/ha): 20%
- pest or weed control at 125 g/ha ([7]; post-emergence, postemergence, visual rating, scale 0 (no effect) to 100 (complete control), read-out: Surinam Grass plant response rating): 0%
- pest or weed control at 500 g/ha ([7]; post-emergence, postemergence, scale 0 to 100, 0 is no effect, 100 is complete control, read-out: Surinam Grass plant response rating): 20%
- pest or weed control at 125 g/ha ([7]; pre-emergence, 0 = no effect, 100 = complete control, read-out: Surinam Grass plant response rating (0 to 100 scale)): 0%
- pest or weed control at 500 g/ha ([7]; pre-emergence, visual rating, 0 = no effect, 100 = complete control, read-out: Plant response rating, Surinam Grass): 0%
- pest or weed control at 125 g/ha ([8]; post-emergence, postemergence, visual rating, scale 0 (no effect) to 100 (complete control), read-out: Crabgrass, Large plant response rating): 0%
- pest or weed control at 500 g/ha ([8]; post-emergence, postemergence, scale 0 to 100, 0 is no effect, 100 is complete control, read-out: Crabgrass, Large plant response rating): 10%
- pest or weed control at 125 g/ha ([8]; pre-emergence, 0 = no effect, 100 = complete control, read-out: Crabgrass, Large plant response rating (0 to 100 scale)): 50%
- pest or weed control at 500 g/ha ([8]; pre-emergence, visual rating, 0 = no effect, 100 = complete control, read-out: Plant response rating, Crabgrass, Large): 50%
- pest or weed control at 125 g/ha ([9]; post-emergence, postemergence, visual rating, scale 0 (no effect) to 100 (complete control), read-out: Foxtail, Giant plant response rating): 0%
- pest or weed control at 500 g/ha ([9]; post-emergence, postemergence, scale 0 to 100, 0 is no effect, 100 is complete control, read-out: Foxtail, Giant plant response rating): 0%
- pest or weed control at 125 g/ha ([9]; pre-emergence, 0 = no effect, 100 = complete control, read-out: Foxtail, Giant plant response rating (0 to 100 scale)): 0%
- pest or weed control at 500 g/ha ([9]; pre-emergence, visual rating, 0 = no effect, 100 = complete control, read-out: Plant response rating, Foxtail, Giant): 0%
- plant injury at 125 g/ha ([10]; post-emergence, postemergence, 125 g ai/ha, visual rating, scale 0 (no effect) to 100 (complete control), read-out: Corn plant response rating): 10%
- plant injury at 500 g/ha ([10]; post-emergence, postemergence, 500 g ai/ha, scale 0 to 100, 0 is no effect, 100 is complete control, read-out: Corn plant response rating): 20%
- Corn plant response rating (crop injury, 0 = no effect, 100 = complete kill) at 500 g/ha ([10]; pre-emergence, 500 g ai/ha, visual rating, 0 = no effect, 100 = complete control): 0%
- pest or weed control at 125 g/ha ([11]; post-emergence, postemergence, visual rating, scale 0 (no effect) to 100 (complete control), read-out: Morningglory plant response rating): 0%
- pest or weed control at 500 g/ha ([11]; post-emergence, postemergence, scale 0 to 100, 0 is no effect, 100 is complete control, read-out: Morningglory plant response rating): 0%
- pest or weed control at 125 g/ha ([11]; pre-emergence, 0 = no effect, 100 = complete control, read-out: Morningglory plant response rating (0 to 100 scale)): 0%
- pest or weed control at 500 g/ha ([11]; pre-emergence, visual rating, 0 = no effect, 100 = complete control, read-out: Plant response rating, Morningglory): 0%
- pest or weed control at 125 g/ha ([12]; post-emergence, postemergence, visual rating, scale 0 (no effect) to 100 (complete control), read-out: Velvetleaf plant response rating): 0%
- pest or weed control at 500 g/ha ([12]; post-emergence, postemergence, scale 0 to 100, 0 is no effect, 100 is complete control, read-out: Velvetleaf plant response rating): 0%
- pest or weed control at 125 g/ha ([12]; pre-emergence, 0 = no effect, 100 = complete control, read-out: Velvetleaf plant response rating (0 to 100 scale)): 0%
- pest or weed control at 500 g/ha ([12]; pre-emergence, visual rating, 0 = no effect, 100 = complete control, read-out: Plant response rating, Velvetleaf): 20%
- pest or weed control at 125 g/ha [13, 17]: 0%
- pest or weed control at 500 g/ha [13, 17]: 0%
- pest or weed control at 125 g/ha ([13]; pre-emergence, 0 = no effect, 100 = complete control, read-out: Barnyardgrass plant response rating (0 to 100 scale)): 0%
- pest or weed control at 500 g/ha ([13]; pre-emergence, visual rating, 0 = no effect, 100 = complete control, read-out: Plant response rating, Barnyardgrass): 20%
- pest or weed control at 125 g/ha [14, 18]: 0%
- pest or weed control at 500 g/ha [14, 18]: 10%
- pest or weed control at 125 g/ha ([14]; pre-emergence, 0 = no effect, 100 = complete control, read-out: Cocklebur plant response rating (0 to 100 scale)): 0%
- pest or weed control at 500 g/ha ([14]; pre-emergence, visual rating, 0 = no effect, 100 = complete control, read-out: Plant response rating, Cocklebur): 0%
